Patent US6620828B2, “Thiazole compounds and pharmaceutical compositions for inhibiting protein kinases and methods for their use” (Agouron Pharmaceuticals, Inc., priority 1999, dated 2003)

Tested on: human umbilical vein endothelial cells (HUVEC)
Assay: HUVEC proliferation assay
Assay type: cell-based
Conditions: Homo sapiens, HUVEC, table following Table II (untitled), crude combinatorial library; for inhibition at 0.001 µM: 1 nM; for inhibition at 0.01 µM: 10 nM, read-out: % inhibition @ 10 nM
Summary of the method: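 Readout was MTT dye reduction (A595) after 72 h of stimulation with VEGF at 6 ng/ml final. Compound, in 0.1% DMSO final, was added 1 h before VEGF to HUVEC starved 24 h in 1% FBS. % inhibition was scaled between VEGF-alone and unstimulated wells; IC50 was fitted from triplicate dose curves.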

SMILES | inhibition at 0.001 µM [%] | inhibition at 0.01 µM [%]
COc1cc(Nc2nc(N)c(-c3nc(-c4cc(NC(=O)c5ccccc5)ccc4C)no3)s2)cc(OC)c1OC | 25 | 111
COc1cc(Nc2nc(N)c(-c3nc(-c4cc(NC(=O)c5cc(=O)[nH]c(=O)[nH]5)ccc4C)no3)s2)cc(OC)c1OC | -4 | 4
COc1cc(Nc2nc(N)c(-c3nc(-c4cc(NC(=O)C5CCCO5)ccc4C)no3)s2)cc(OC)c1OC (stereo not drawn) | 7 | 21
COc1cc(Nc2nc(N)c(-c3nc(-c4cc(NC(=O)C(C)C)ccc4C)no3)s2)cc(OC)c1OC | 6 | 1
COc1cc(Nc2nc(N)c(-c3nc(-c4cc(NC(=O)C(O)CC(C)C)ccc4C)no3)s2)cc(OC)c1OC (stereo not drawn) | 5 | 69
COc1cc(Nc2nc(N)c(-c3nc(-c4cc(NC(=O)c5ccc(=O)oc5)ccc4C)no3)s2)cc(OC)c1OC | 30 | 51
COc1cc(Nc2nc(N)c(-c3nc(-c4cc(NC(=O)c5cccc6[nH]ccc56)ccc4C)no3)s2)cc(OC)c1OC | 13 | 72
COc1cc(Nc2nc(N)c(-c3nc(-c4cc(NC(=O)C5=C[C@@H](O)[C@@H](O)[C@H](O)C5)ccc4C)no3)s2)cc(OC)c1OC | 4 | 6
COc1cc(Nc2nc(N)c(-c3nc(-c4cc(NC(=O)[C@H]5CC(=O)NC(=O)N5)ccc4C)no3)s2)cc(OC)c1OC | 25 | 2
COc1cc(Nc2nc(N)c(-c3nc(-c4cc(NC(=O)CCCN(C)C)ccc4C)no3)s2)cc(OC)c1OC | 5 | 16
COc1cc(Nc2nc(N)c(-c3nc(-c4cc(NC(=O)[C@H]5CCC(=O)N5)ccc4C)no3)s2)cc(OC)c1OC | -4 | 13
C=CCC(=O)Nc1ccc(C)c(-c2noc(-c3sc(Nc4cc(OC)c(OC)c(OC)c4)nc3N)n2)c1 | 35 | 72
COc1cc(Nc2nc(N)c(-c3nc(-c4cc(NC(=O)C5CCN(C(C)=O)CC5)ccc4C)no3)s2)cc(OC)c1OC | -4 | 16
COc1cc(Nc2nc(N)c(-c3nc(-c4cc(NC(=O)C5CCOC5)ccc4C)no3)s2)cc(OC)c1OC (stereo not drawn) | 16 | 6
COc1cccc(/C=C/C(=O)Nc2ccc(C)c(-c3noc(-c4sc(Nc5cc(OC)c(OC)c(OC)c5)nc4N)n3)c2)c1 | -5 | 40
COc1cc(Nc2nc(N)c(-c3nc(-c4cc(NC(=O)C(O)c5ccccc5)ccc4C)no3)s2)cc(OC)c1OC (stereo not drawn) | -1 | 40
COc1cc(Nc2nc(N)c(-c3nc(-c4cc(NC(=O)C(=O)Cc5ccccc5)ccc4C)no3)s2)cc(OC)c1OC | 23 | 21
COc1cc(Nc2nc(N)c(-c3nc(-c4cc(NC(=O)CSC(=S)N(C)C)ccc4C)no3)s2)cc(OC)c1OC | 6 | -7
COc1cc(Nc2nc(N)c(-c3nc(-c4cc(NC(=O)C5C(C=C(C)C)C5(C)C)ccc4C)no3)s2)cc(OC)c1OC (stereo not drawn) | 8 | -11

SMILES | inhibition at 0.001 µM [%] | inhibition at 0.01 µM [%]
COc1cc(Nc2nc(N)c(-c3nc(-c4cc(NC(=O)[C@@]56C[C@@H]7C[C@@H]5CC7(C)C6)ccc4C)no3)s2)cc(OC)c1OC | 1 | 23
COc1cc(Nc2nc(N)c(-c3nc(-c4cc(NC(=O)Cc5cccnc5)ccc4C)no3)s2)cc(OC)c1OC | -4 | 21
COc1cc(Nc2nc(N)c(-c3nc(-c4cc(NC(=O)Cc5cc(F)ccc5F)ccc4C)no3)s2)cc(OC)c1OC | -7 | 59
COc1cc(Nc2nc(N)c(-c3nc(-c4cc(NC(=O)Cc5cc(F)cc(F)c5)ccc4C)no3)s2)cc(OC)c1OC | 4 | 67
COc1cccc(CC(=O)Nc2ccc(C)c(-c3noc(-c4sc(Nc5cc(OC)c(OC)c(OC)c5)nc4N)n3)c2)c1 | 12 | 35
COc1cc(Nc2nc(N)c(-c3nc(-c4cc(NC(=O)C5CC[C@H]6C=C[C@@H]5C6)ccc4C)no3)s2)cc(OC)c1OC (stereo partly drawn) | -2 | 33
COc1cc(Nc2nc(N)c(-c3nc(-c4cc(NC(=O)CCc5ccc(C)cc5)ccc4C)no3)s2)cc(OC)c1OC | -18 | 23
COc1cc(Nc2nc(N)c(-c3nc(-c4cc(NC(=O)c5cc(C)on5)ccc4C)no3)s2)cc(OC)c1OC | 12 | 15
COc1cc(Nc2nc(N)c(-c3nc(-c4cc(NC(=O)C(=O)CC(C)C)ccc4C)no3)s2)cc(OC)c1OC | 7 | 18
COc1cc(Nc2nc(N)c(-c3nc(-c4cc(NC(=O)C5CCCC(OC)C5)ccc4C)no3)s2)cc(OC)c1OC (stereo not drawn) | -4 | 19
COc1cc(Nc2nc(N)c(-c3nc(-c4cc(NC(=O)C5(c6ccc(C)cc6)CC5)ccc4C)no3)s2)cc(OC)c1OC | 10 | -8
COc1cc(Nc2nc(N)c(-c3nc(-c4cc(NC(=O)Cc5sc(S)nc5C)ccc4C)no3)s2)cc(OC)c1OC | -17 | 1
COc1cc(Nc2nc(N)c(-c3nc(-c4cc(NC(=O)c5cc(C)n(C)n5)ccc4C)no3)s2)cc(OC)c1OC | 25 | 99
COc1cc(Nc2nc(N)c(-c3nc(-c4cc(NC(=O)C5CC(=O)OC5(C)C)ccc4C)no3)s2)cc(OC)c1OC (stereo not drawn) | -9 | 12
COc1cc(Nc2nc(N)c(-c3nc(-c4cc(NC(=O)c5cc(C)n[nH]5)ccc4C)no3)s2)cc(OC)c1OC | -1 | 99
COc1cc(Nc2nc(N)c(-c3nc(-c4cc(NC(=O)c5cc(C)nn5C)ccc4C)no3)s2)cc(OC)c1OC | -23 | 109
COc1cc(Nc2nc(N)c(-c3nc(-c4cc(NC(=O)c5cc(C)[nH]c5C)ccc4C)no3)s2)cc(OC)c1OC | -36 | 16
COc1cc(Nc2nc(N)c(-c3nc(-c4cc(NC(=O)c5cccc6cc[nH]c56)ccc4C)no3)s2)cc(OC)c1OC | 34 | 41
C/C=C(\C)C(=O)Nc1ccc(C)c(-c2noc(-c3sc(Nc4cc(OC)c(OC)c(OC)c4)nc3N)n2)c1 | 60 | 123

SMILES | inhibition at 0.001 µM [%] | inhibition at 0.01 µM [%]
COc1cc(Nc2nc(N)c(-c3nc(-c4cc(NC(=O)c5cc(=O)cco5)ccc4C)no3)s2)cc(OC)c1OC | 19 | 37
CCCN(CCC)CC(=O)Nc1ccc(C)c(-c2noc(-c3sc(Nc4cc(OC)c(OC)c(OC)c4)nc3N)n2)c1 | 6 | 0
CC/C=C(\C)C(=O)Nc1ccc(C)c(-c2noc(-c3sc(Nc4cc(OC)c(OC)c(OC)c4)nc3N)n2)c1 | 32 | 74
COc1cc(Nc2nc(N)c(-c3nc(-c4cc(NC(=O)C5CNC(=O)N5)ccc4C)no3)s2)cc(OC)c1OC (stereo not drawn) | -43 | -7
COc1cc(Nc2nc(N)c(-c3nc(-c4cc(NC(=O)C5CC5C)ccc4C)no3)s2)cc(OC)c1OC (stereo not drawn) | 24 | 6
COc1cc(Nc2nc(N)c(-c3nc(-c4cc(NC(=O)c5cc(F)ccc5C)ccc4C)no3)s2)cc(OC)c1OC | 29 | 64
COc1cc(Nc2nc(N)c(-c3nc(-c4cc(NC(=O)C5CCSCN5C)ccc4C)no3)s2)cc(OC)c1OC (stereo not drawn) | 14 | 29
COc1cc(Nc2nc(N)c(-c3nc(-c4cc(NC(=O)[C@H]5CCC[C@H]5O)ccc4C)no3)s2)cc(OC)c1OC | 45 | 9
COc1cc(Nc2nc(N)c(-c3nc(-c4cc(NC(=O)C5CCC(=O)CC5)ccc4C)no3)s2)cc(OC)c1OC | 23 | -24
COc1cc(Nc2nc(N)c(-c3nc(-c4cc(NC(=O)c5ccccc5C(C)C)ccc4C)no3)s2)cc(OC)c1OC | 6 | 11
COc1cc(Nc2nc(N)c(-c3nc(-c4cc(NC(=O)[C@H](C)C(C)C)ccc4C)no3)s2)cc(OC)c1OC | -8 | -18
CCn1nc(C)cc1C(=O)Nc1ccc(C)c(-c2noc(-c3sc(Nc4cc(OC)c(OC)c(OC)c4)nc3N)n2)c1 | -4 | 44
COc1cc(Nc2nc(N)c(-c3nc(-c4cc(NC(=O)[C@H](O)C(C)(C)C)ccc4C)no3)s2)cc(OC)c1OC | -34 | -11
COc1cc(Nc2nc(N)c(-c3nc(-c4cc(NC(=O)C5CC(=O)N(C)C5)ccc4C)no3)s2)cc(OC)c1OC (stereo not drawn) | 16 | -18
COc1cc(Nc2nc(N)c(-c3nc(-c4cc(NC(=O)[C@@H](OC)c5ccccc5)ccc4C)no3)s2)cc(OC)c1OC | -11 | 63
COc1ccccc1/C=C/C(=O)Nc1ccc(C)c(-c2noc(-c3sc(Nc4cc(OC)c(OC)c(OC)c4)nc3N)n2)c1 | 13 | 31
COc1cc(Nc2nc(N)c(-c3nc(-c4cc(NC(=O)C5CC6C=CCC(C6)C5)ccc4C)no3)s2)cc(OC)c1OC (stereo not drawn) | 18 | 18
COc1cc(Nc2nc(N)c(-c3nc(-c4cc(NC(=O)C5CCC6CCC(O)CC5C6)ccc4C)no3)s2)cc(OC)c1OC (stereo not drawn) | 10 | 11
COc1cc(Nc2nc(N)c(-c3nc(-c4cc(NC(=O)C5CC[C@H]6CC(O)CC[C@@H](C5)C6)ccc4C)no3)s2)cc(OC)c1OC (stereo partly drawn) | 7 | 20
